One compound from patent publication US5665769A, “Pharmaceutical composition for preventing and treating retinal diseases” (Senju Pharmaceuticals Co., Ltd., priority 1993, dated 1997) can be followed below.

The subject of series [1] is retina (ERG in rats). As to the kind of experiment: ERG in rats after light exposure for 3 days (Experiment 2 (B-2), Method 1). The series is classed as in vivo. Conditions: 5.0% suspension, oral 200 mg/kg/day on day of light exposure, 100 mg/kg/day other days; light 3 days. The procedure: FIG. 4 is a graph showing the b-wave amplitude of ERG in rats after light exposure for 3 days in Experiment 2 (B-2)(Method 1). The abscissa indicates time (day) after light exposure and the ordinate indicates b-wave amplitude (mv).
(B-2) Evaluation by ERG determination
Rats were subjected to dark adaptation for 24 hours. Continuous light exposure for 20 hours was repeated for 3 successive days using a green fluorescent lamp (490-580 nm), the illumination intensity of which was adjusted to 600 to 700 lux. ERG was measured for 3 successive days after dark adaptation for 2 hours after completion of everyday light exposure. After that, the rats were reared in a dark room, and ERG was measured on the 7th day after the light exposure, and evaluated for the amplitude of a-wave and b-wave and the latency of a-wave. From the day before the light exposure, a 5.0% 2-O-octadecylascorbic acid suspension or 5.0% gum arabic solution (control) was orally administered twice a day (200 mg/kg/day) on the day of the light exposure and once a day (100 mg/kg/day) on other days.

Series [2] concerns retina (ERG in rats). As to the kind of experiment: ERG changes induced by intravitreous injection of ferrous sulfate in rats (Experiment 1 (B-2)). The class given is in vivo, SD rats. The conditions noted are these: 30 mg/kg oral. The source says: FIG. 1 is a graph showing the a-wave amplitude of ERG in rats after intravitreous injection of ferrous ion in Experiment 1 (B-2). The abscissa indicates time (hour) and the ordinate indicates percentage (%) relative to the initial amplitude. In FIGS. 1 to 5, the compound (I) is 2-O-octadecylascorbic acid. FIG. 2 is a graph showing the b-wave latency of ERG in rats after intravitreous injection of ferrous ion in Experiment 1 (B-2). The abscissa indicates time (hour) and the ordinate indicates percentage (%) relative to the initial amplitude. FIG. 3 is a graph showing the b-wave amplitude of ERG in rats after intravitreous injection of ferrous ion in Experiment 1 (B-2). The abscissa indicates time (hour) and the ordinate indicates percentage (%) relative to the initial amplitude. (B-2) Evaluation by Electroretinogram (hereinafter referred to as ERG) determination Effects of oral administration of 2-O-octadecylascorbic acid (30 mg/kg) on the changes of ERG induced by intravitreous injection of ferrous sulfate in rats were examined. Twelve SD rats (7 weeks old) were fasted from the previous day. A 7.5 mM ferrous sulfate (5 μl) solution was injected intravitreously into each of the left eyes. A 1.5% suspension of 2-O-octadecylascorbic acid (30 mg/kg) or a 5% solution of gum arabic (control) was firstly administered orally 2 hours before the ferrous ion injection, and thereafter administered three times every 3 hours and then three times every 5 hours. ERG was determined 6, 9 and 24 hours after the ferrous ion injection and evaluated for the latency and amplitude of a-wave and b-wave.

Series [3] relates to retina (ERG in rats). As to the kind of experiment: ERG in rats after light exposure for 20 hours (Experiment 2 (B-2), Method 2). The series is classed as in vivo. Conditions: 5.0% suspension, light 20 hours. The procedure: FIG. 5 is a graph showing the a-wave latency of ERG in rats after light exposure for 20 hours in Experiment 2 (B-2)(Method 2). The abscissa indicates time (day) after light exposure and the ordinate indicates a-wave latency (msec).
(B-2) Evaluation of ERG determination
Rats were subjected to dark adaptation for 12 hours and irradiated with light for 20 successive hours under the same conditions as those of (Method-1). After subjecting them to dark adaptation for 2 hours, ERG was determined. A 5.0% 2-O-octadecylascorbic acid suspension or 5.0% gum arabic solution (control) was orally administered once a day (100 mg/kg/day) from 7 days before the light exposure and twice a day (200 mg/kg/day) only on the day of the light exposure.

In a further series the test system is mice. As to the kind of experiment: Acute toxicity test in mice (Experiment 3). The class given is in vivo. The procedure: Acute toxicity test of 2-O-octadecylascorbic acid
2-O-octadecylascorbic acid was tested for the acute toxicity test in mice. As a result, no mouse died even in oral administration of 1000 mg/kg. This compound has therefore low toxicity.

The next series has as its system retinal rhodopsin. As to the kind of experiment: Retinal light damage in rats, retinal rhodopsin amount (Experiment 2 (B-1)). The class given is in vivo. Conditions: for Amount of retinal rhodopsin: mean ± S.D. How it is done:
(B) In vivo experiment by light exposure in rats
(B-1) Evaluation by retinal pathological tissues and rhodopsin amount
Rats were subjected to dark adaptation for 72 hours. Then the rats were irradiated continuously for 12 hours using a green fluorescent lamp (10 W, 490-580 nm), the illumination intensity of which was adjusted to 2000 to 2400 lux. A suspension of 1.5% or 5.0% 2-O-octadecylascorbic acid was orally administered three times a day (90, 300 mg/kg/day) on the day of light exposure, and once a day (30, 100 mg/kg/day) after that. To the control group was administered 5.0% gum arabic solution (control) according to the same schedule. After completion of the light exposure, the rats were reared in a dark room and sacrificed on the 5th day. The right eyes were marked with ink in the upper part and fixed with 2% paraformaldehyde and 2% glutaraldehyde solutions. Histopathological evaluation was made using a light microscope and the thickness of retinae (thickness of retinal entire layer and outer nuclear layer) was measured. The left eyes were stored under freezing conditions at -20° C. for rhodopsin determination after removal of the cornea, lens and vitreous body.
Rhodopsin was determined as follows. Firstly, the optic cup was sliced under a red lamp in a dark room, and retinal homogenates were prepared using 0.1M phosphate buffer (pH 7.2). After centrifugation at 15,000 rpm for 15 minutes, the precipitation was treated with 4% potassium alum solution. After washing, rhodopsin was extracted with 1% Emulphogen BC-720 (trade mark). The absorbance at 500 nm was measured using the centrifuged supernatant as the sample. The sample was bleached by light exposure with a yellow lamp for 5 minutes. The absorbance at 500 nm was measured again. The rhodopsin amount was calculated from the difference between the absorbances before and after the bleach (molar absorption coefficient: 42,000).

Setting [4] is: 9 hours after ferrous ion injection, compared to control.

Turning to `CCCCCCCCCCCCCCCCCCOC1=C(O)[C@@H]([C@@H](O)CO)OC1=O` [2-O-octadecylascorbic acid], in the series on retina (ERG in rats) [1], the “decrease of the b-wave amplitude” value is on record as “the tendency to inhibit the decrease of the b-wave amplitude was observed”. Also, in the series on retina (ERG in rats) [2] (setting [4]), the “decrease of the amplitude of a-wave and b-wave” value was “more marked tendency to inhibit the decrease of the amplitude of a-wave and b-wave”; the “delay of the b-wave latency” value is “the delay of the b-wave latency was significantly inhibited”. In addition, the recovery of amplitude entry in the series with retina (ERG in rats) [2] (24 hours after ferrous ion injection, both groups) is “The amplitude was not recovered even in the determination after 24 hours”. Besides, the “delay of the latency and decrease of the amplitude of a-wave and b-wave” value in the series with retina (ERG in rats) [2] (from 6 hours after ferrous ion injection, both groups) is recorded as “strongly observed in both groups”. Further, in the series on retina (ERG in rats) [3] (oral 100 mg/kg/day from 7 days before, 200 mg/kg/day on day of light exposure), the “delay of the a-wave latency” value is recorded as “significantly inhibited the delay of the a-wave latency”. Besides, the “amplitude of a-wave and b-wave” value in the series with retina (ERG in rats) [3] (both groups) is recorded as “decreased in both groups”. Also, the toxicity result in the series with mice (acute toxicity, mice, oral) is listed as “low toxicity”. The mortality entry in the series on mice (mouse, in vivo, po, 1000 mg/kg) is reported as “no mouse died”. Further, the “Amount of retinal rhodopsin” value with retinal rhodopsin (1.5% suspension, n=5) was determined as 0.51 ± 0.20 nM/eye. In the series with retinal rhodopsin (5.0% suspension, n=3), the “Amount of retinal rhodopsin” value was 0.69 ± 0.14 nM/eye. Besides, the “decrease of the amount of rhodopsin by light exposure (in words)” value in the series on retinal rhodopsin (suspension administered groups) is on record as “the tendency to inhibit the decrease of the amount of rhodopsin by light exposure was observed”.
